Experiments:
[1] = biological target: T1, human LAT1 (SLC7A5) (Homo sapiens, UniProt Q01650); assay: LAT1-mediated cellular uptake in transfected MDCK-II cells; type: cell-based; conditions: HBSS pH 7.4, 3 min, 37 °C
T1 construct: host or cells: MDCK-II
Description: Transport studies with human PepT1 (SLC15A1), LAT1 (SLC7A5) and MCT1 (SLC16A1) were conducted in MDCK-II cells expressing the human transporter or control cells expressing a vector with Green Fluorescence Protein. Cells were transfected using a proprietary, transient transfection system (OPTI-EXPRESSION Technology, BioIVT). The results from the control cells were used to correct for substrate permeation by routes other than the transporter being investigated in the study. […] Specifically, Net Transporter Mediated Substrate Uptake (pmol/min/cm^2) = (Cellular accumulation in the presence of the transporter) − (Mean cellular accumulation in the absence of the transporter). MDCK-II cells were maintained in DMEM with low glucose and 10% FBS. Cells were used at passages up to 40 were seeded at 60,000 ± 10,000 cells/well on 96-well plates approximately 24 h before transfection, and transport assays were performed approximately 48 h after transfection. […]
Transport studies with PepT1 were conducted in 96-well cell culture plate with wells containing a monolayer of MDCK-II cells grown on a permeable support and a corresponding 96-well receiver tray. […] Then a 30-µL sample was taken and mixed with 200 µL of scintillation fluid and scintillation counted (1450 Microbeta, Perkin-Elmer). […]

[2] = biological target: T2, Human OAT3 (SLC22A8) (Homo sapiens, UniProt Q8TCC7); assay: Inhibition of OAT3 uptake of probe substrate estrone-3-sulfate in HEK-293 cells; type: cell-based; conditions: probe estrone-3-sulfate 2 µM; positive control diclofenac 100 µM
T2 construct: host or cells: HEK-293
T2 sequence (Q8TCC7 1-542): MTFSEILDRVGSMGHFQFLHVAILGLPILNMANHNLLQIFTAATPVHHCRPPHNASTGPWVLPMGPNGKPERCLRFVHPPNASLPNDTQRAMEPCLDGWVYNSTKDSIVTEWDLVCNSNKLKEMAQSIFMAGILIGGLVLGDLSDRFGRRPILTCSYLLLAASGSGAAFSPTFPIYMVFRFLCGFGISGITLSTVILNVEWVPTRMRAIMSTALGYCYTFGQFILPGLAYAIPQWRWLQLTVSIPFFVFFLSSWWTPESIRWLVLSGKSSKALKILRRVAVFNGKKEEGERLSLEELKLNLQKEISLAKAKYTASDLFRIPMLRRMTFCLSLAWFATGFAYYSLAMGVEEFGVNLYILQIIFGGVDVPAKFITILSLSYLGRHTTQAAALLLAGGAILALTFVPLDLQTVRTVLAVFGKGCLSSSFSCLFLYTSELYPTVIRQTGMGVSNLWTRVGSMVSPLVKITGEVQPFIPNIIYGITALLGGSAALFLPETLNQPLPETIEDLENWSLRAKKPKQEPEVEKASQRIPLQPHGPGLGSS
Description: Cells were grown in DMEM (Gibco 4196, high glucose, without sodium pyruvate) supplemented with MEM non-essential amino acids and 10% fetal bovine serum. Cells were re-fed with fresh medium after attachment (4–6 h post-seeding). Cell were plated at a density of 4 × 10^5/well in 24-well plates coated with poly-D-lysine. Transporter assays were conducted in 400 µL of HBSS supplemented with 10 mM Hepes, pH 7.4
The known probe substrates used as positive controls were 3 μM chlorothiazide for OAT1, 2 μM estrone-3-sulfate for OAT3, 10 µM [^3H]gabapentin for LAT1, 50 µM [^3H]Gly-Sar for PepT1, 500 µM thiophene-2-glyoxylic acid for MCT1. The known inhibitors used as controls for each transporter were 100 μM diclofenac for OAT1 and OAT3, 10 µM JPH203 for LAT1 and 200 µM losartan for PepT1. All incubations were in triplicate and contained 1% (OAT1 and OAT3) or 0.5% DMSO (LAT, PepT1 and MCT1). […]
[I] is the inhibitor concentration and IC50 is the inhibitor concentration where the remaining activity is at the midpoint between the Top and Bottom. […] In inhibition experiments, the IC50 is not equivalent to affinity because it is dependent on the concentrations of the substrate, the inhibitor and affinity; therefore, we assumed competitive inhibition, and calculated affinity of inhibition (Ki) with the Cheng-Prusoff equation[49].

T1 sequence (Q01650 whole entry): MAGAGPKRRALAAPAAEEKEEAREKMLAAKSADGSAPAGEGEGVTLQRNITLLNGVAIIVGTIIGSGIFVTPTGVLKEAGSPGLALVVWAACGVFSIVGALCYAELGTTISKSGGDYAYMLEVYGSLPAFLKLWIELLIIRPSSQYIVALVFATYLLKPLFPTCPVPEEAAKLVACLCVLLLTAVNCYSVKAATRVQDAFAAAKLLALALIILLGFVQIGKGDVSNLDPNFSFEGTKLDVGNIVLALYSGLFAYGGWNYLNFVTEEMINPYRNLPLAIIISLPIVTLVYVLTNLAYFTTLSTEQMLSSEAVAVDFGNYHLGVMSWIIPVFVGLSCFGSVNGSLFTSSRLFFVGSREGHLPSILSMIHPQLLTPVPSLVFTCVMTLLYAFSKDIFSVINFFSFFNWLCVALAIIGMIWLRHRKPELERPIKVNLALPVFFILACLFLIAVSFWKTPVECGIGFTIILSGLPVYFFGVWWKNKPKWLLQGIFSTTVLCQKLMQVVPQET
T1 sequence (P08195 102-630 partner): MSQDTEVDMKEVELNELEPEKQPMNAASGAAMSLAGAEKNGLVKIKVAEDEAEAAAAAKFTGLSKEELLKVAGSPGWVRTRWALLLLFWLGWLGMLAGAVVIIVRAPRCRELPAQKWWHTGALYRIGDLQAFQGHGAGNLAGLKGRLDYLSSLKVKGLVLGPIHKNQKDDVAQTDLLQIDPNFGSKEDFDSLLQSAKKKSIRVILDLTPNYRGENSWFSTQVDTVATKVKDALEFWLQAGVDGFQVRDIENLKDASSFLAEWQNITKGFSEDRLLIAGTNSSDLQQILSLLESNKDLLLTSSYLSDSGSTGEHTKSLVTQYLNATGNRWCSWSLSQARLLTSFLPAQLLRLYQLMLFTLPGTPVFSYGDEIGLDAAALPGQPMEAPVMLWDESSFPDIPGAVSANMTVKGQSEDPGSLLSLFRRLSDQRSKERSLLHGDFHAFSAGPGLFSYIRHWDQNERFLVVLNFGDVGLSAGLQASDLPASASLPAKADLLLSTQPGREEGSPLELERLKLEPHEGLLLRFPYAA

substrate of LAT1 (uptake) [1]: not transported
substrate of LAT1 (uptake) ([1]; listed as N-acetyl-leucine): not a substrate
IC50 [2]: 700 µM
Structure (SMILES): CC(=O)N[C@@H](CC(C)C)C(=O)O [N-acetyl-L-leucine]

Source: PMC8338929, “Acetylation turns leucine into a drug by membrane transporter switching” (Scientific Reports, 2021)
